# Laboratory results from article PMC12040169 (PLOS Biology, 2025).
# Assay: in vitro
# Conditions: human, hela cells, % viability
row,SMILES,"viability at 28.5 h, 10 µM [%]"
1,CC(C)Nc1nccnc1Sc1cccc(O)c1 [CBK093725],111
2,COCCNC(=O)c1cnn2c(C)c(Cc3ccccc3C(F)(F)F)c(C)nc12 [CBK165210],95.7
3,O=C(c1ccc(N2CCSCC2)nc1)N1CCC(N2CCOCC2)CC1 [CBK306582],78.6
4,COc1ccc(NC(=O)c2c(NC(=O)CN3CCCC(C)C3)sc3c2CCC3)cc1 (centres unmarked) [CBK265061],93.3
5,Cc1cc(C)cc(N(C(C)C(=O)N2CCN(Cc3ccc4c(c3)OCO4)CC2)S(C)(=O)=O)c1 (centres unmarked) [CBK269060],90.3
6,CCOC(=O)c1cnc2c(C)cc(Cl)cc2c1NCCN(C)C [CBK264800],90.7
7,CS(=O)(=O)c1ccc(Nc2cncc(N3CCC(Sc4ccccn4)CC3)c2C#N)cc1 [CBK131843],85.2
8,Cc1cnn(CC(=O)N2CCCCC2CN2CCCCCC2)c1 (centres unmarked) [CBK282103],98.9
9,CC1(CNC(=O)C2CC(=O)N(C3CCCCC3)C2)COC1 (centres unmarked) [CBK281754],97
10,c1cnc(-c2ccc3c(c2)OCO3)c(OC2CCCCC2)n1 [CBK106706],92.4
11,Fc1cc(F)cc(-c2nnc(Cc3nc(-c4ccncc4)no3)o2)c1 [CBK288602],98.6
12,O=C(NCCOc1ccccc1)N1CCN(c2ccccc2)CC1 [CBK155198],88.5
13,Cc1c(CN(Cc2ccccc2)CC2CCCO2)cnn1C (centres unmarked) [CBK283263],94.3
14,Cc1ccc(Oc2ccc([N+](=O)[O-])cc2)c(Br)c1 [CBK002832],90.6
15,CC(C(=O)N1CCC(O)(c2ccccn2)CC1)c1ccccc1 (centres unmarked) [CBK282396],102
16,O=C(/C=C/c1ccc([N+](=O)[O-])cc1)c1ccc(O)c(O)c1 [CBK265028],105
17,COc1ccccc1-c1noc(C2CCN(S(=O)(=O)c3ccc(F)cc3)CC2)n1 [CBK269401],92.9
18,NC(=O)C1CCN(C(=O)CCCSc2nc(-c3ccco3)cc(C(F)(F)F)n2)CC1 [CBK268844],98.5
19,O=C(NCCn1nc(-c2cccs2)ccc1=O)C1CCCC1 [CBK283840],104
20,C=C(C)Cn1c(=O)nc(N)c2c3c(sc21)CCC3 [CBK287986],88.2
21,CCc1cc(C(=O)N2CCCC(c3cc4ccccc4cn3)C2)on1 (centres unmarked) [CBK285156],101
22,CN(CC1CCCCO1)C(=O)c1ccc(-c2ccccc2C(N)=O)cc1 (centres unmarked) [CBK306967],92.6

row,SMILES,"viability at 28.5 h, 10 µM [%]"
1,Cc1ccc2cc(CN(CCN(C)C)C(=S)Nc3ccccc3)c(=O)[nH]c2c1 [CBK134909],104
2,Cc1ccc(-n2ncc3c2NC(=O)N2CCCN=C32)cc1 [CBK284416],110
3,CC(=O)NC(c1ccccn1)C1CCN(Cc2cccc(F)c2)CC1 (centres unmarked) [CBK285461],104
4,CC(C)(C)C1=Nn2c(nnc2-c2n[nH]c3c2CCC3)SC1 [CBK287894],87.7
5,CC(=O)c1ccc2[nH]c(C(=O)O)c(CCN)c2c1 [CBK260944],91.6
6,CCc1nc2c(OCc3ccccc3)cccn2c1N(C)C(=O)Nc1ccccc1OC [CBK147890],98.7
7,O=C(O)CCCn1cc(NC(=O)c2cccs2)cn1 [CBK270122],88.1
8,CCCC/C=C/c1cn2ccnc2c(NCCc2ccccn2)n1 [CBK066275],106
9,CC(=O)Nc1ccc(S(=O)(=O)N2CCN(c3ccc([N+](=O)[O-])cc3C(F)(F)F)CC2)cc1 [CBK264944],112
10,COc1ccc(C)cc1S(=O)(=O)Nc1ccc(O[C@@H]2CCNC2)c2ccccc12 [CBK051622C],104
11,O=C(O)CCN1CCN(S(=O)(=O)c2ccccc2)CC1 [CBK269402],106
12,Cc1noc(C)c1NC(=O)c1cn(C)c2ccccc12 [CBK200312],87.3
13,CCCCC(=O)NC1CCN(C(=O)c2cccc(C#N)c2)CC1 [CBK306309],83.4
14,N#CCCCN1CCC(Oc2cncc(OCc3cccnc3)n2)C1 (centres unmarked) [CBK084466],105
15,CC(C)c1ccc(N2C(=O)[C@@H]3C[C@@H](NC(=O)c4cccs4)CCN3C2=O)cc1 [CBK289541],93.1
16,COc1cc(/C=C2\N=C(c3cc(Cl)ccc3OC)OC2=O)ccc1OC(=O)c1ccccc1 [CBK265069],104
17,Cc1cc(NS(=O)(=O)c2ccc(NC(=S)NC3CCCCC3)cc2)no1 [CBK268157],91.3
18,O=C(Cc1ccccc1)N1CCN(CCCc2ccccc2)CC1 [CBK263451G],96.8
19,COc1ccc(-c2noc([C@@H]3C[C@@H](O)CN3C3CCOCC3)n2)cc1 [CBK288844],83.7
20,O=C(CN1C(=O)S/C(=C\c2ccccc2OCc2ccccc2)C1=O)c1ccc(Cl)cc1 [CBK264628],92.5
21,O=S(=O)(NC1CCCC1)c1cccc(-c2nnc(-c3ccccc3)o2)c1 [CBK265716],94.6
22,COc1cccc(OCCOc2nsnc2N2CCNCC2)c1 [CBK200007],110

row,SMILES,"viability at 28.5 h, 10 µM [%]"
1,O=C(CCN1CCN(CCO)CC1)Nc1ccc(Cl)cc1 [CBK033787],101
2,Cc1ccc(S(=O)(=O)Nc2nc(C)cs2)cc1 [CBK102326],100
3,CC(C)(C)c1cc(CCC(=O)N/N=C/c2ccco2)cc(C(C)(C)C)c1O [CBK261960],110
4,CCOC(=O)N1CCN(Cc2ccc(OCC3CCCNC3)cc2)CC1 (centres unmarked) [CBK307355],73.8
5,Cc1cc2oc(C(=O)Nc3nc(-c4ccc(S(=O)(=O)N5CCCC5)cc4)cs3)c(C)c2cc1C [CBK266309],89.5
6,COc1ccc(CCOc2nccnc2-c2ccsc2)cc1 [CBK106775],72
7,O=C(NC(c1ccccc1)c1ccccc1)c1ccc(Cl)cc1[N+](=O)[O-] [CBK262452],84.1
8,CCCCSc1sc(C(=O)O)c(-c2ccc(Cl)cc2)c1C#N [CBK122551],94.1
9,O=C(CSc1n[nH]c(=O)n1C1CC1)NCCCSc1ccccc1 [CBK295620],104
10,CN(C)C(=O)c1cc(Br)cnc1NCCCn1ccnc1 [CBK076378],98
11,Cc1nn(CC(=O)C(C)(C)C)c(=O)c2cc3sccc3n12 [CBK284111],87.2
12,Cn1ccc(C2CCCCCN2C(=O)Cc2cccs2)n1 (centres unmarked) [CBK283047],86.5
13,CCOc1cc(N2CCOCC2)c(OCC)cc1NC(=O)CSc1ccccc1C(=O)O [CBK296107],97.1
14,COc1ccc(OC)c(NC(=O)CSc2nnc(-c3ccncc3)s2)c1 [CBK269209],97.2
15,CC(C)(C)C(=O)N[C@H]1C[C@@H](Cc2cc(CO)on2)C1(C)C [CBK289260],92.1
16,CCOC(=O)C1CCN(Cn2nc(-c3cccs3)oc2=S)CC1 [CBK295165],85.9
17,O=C(NC(=S)Nc1ccccc1)c1cncc(Br)c1 [CBK092040],91.2
18,CC(C)(C)c1cc(C(C)(C)C)cc(S(=O)(=O)CCc2ccccn2)c1 [CBK261073],88.4
19,CCN1CCc2nc(NC(=O)c3ccc(Cl)cc3)sc2C1 [CBK287644],86.3
20,CCOc1cc(/C=N/O)c(Br)cc1O [CBK288359],87.4

# Same assay, conditions: human, hela cells, % viability, bulk resorufin, single well
row,SMILES,"viability at 28.5 h, 10 µM [%]"
1,CNCCc1csc2ccc(C)cc12 [CBK026097],91.6
